Values after ≈ are worked out from the molar mass of the structure shown. Where two headings read alike, the source gives them in different places.
Key:
[1] = pKa of NH proton by UV absorbance pH titration; type: physicochemical; details: dilute phosphate buffer
[2] = Stability in buffer at 4°C; type: physicochemical; details: 0.01 M Tris/HCl pH 7.4, concentration close to saturation
[3] = target: human α1β2γ2L GABAA receptor (Homo sapiens, UniProt P14867+P18507+P47870); type: cell-based
tadpoles = details: cited from earlier work
human α1β3 GABAAR = target: T1, human α1β3 GABAAR (Homo sapiens, UniProt P14867+P28472); details: cited from earlier work
T1 sequence (P14867 28-456): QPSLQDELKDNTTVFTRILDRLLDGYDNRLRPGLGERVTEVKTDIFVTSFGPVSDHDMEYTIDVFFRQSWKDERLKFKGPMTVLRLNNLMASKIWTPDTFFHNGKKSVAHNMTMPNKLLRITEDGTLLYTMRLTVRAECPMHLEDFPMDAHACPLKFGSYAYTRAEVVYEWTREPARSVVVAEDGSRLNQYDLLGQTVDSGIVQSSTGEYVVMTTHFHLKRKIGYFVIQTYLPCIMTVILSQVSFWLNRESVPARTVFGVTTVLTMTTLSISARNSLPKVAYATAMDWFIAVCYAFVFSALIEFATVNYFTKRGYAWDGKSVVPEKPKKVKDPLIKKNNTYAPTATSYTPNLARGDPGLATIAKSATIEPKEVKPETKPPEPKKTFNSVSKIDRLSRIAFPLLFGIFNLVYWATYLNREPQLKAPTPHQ
T1 sequence (P28472 26-473): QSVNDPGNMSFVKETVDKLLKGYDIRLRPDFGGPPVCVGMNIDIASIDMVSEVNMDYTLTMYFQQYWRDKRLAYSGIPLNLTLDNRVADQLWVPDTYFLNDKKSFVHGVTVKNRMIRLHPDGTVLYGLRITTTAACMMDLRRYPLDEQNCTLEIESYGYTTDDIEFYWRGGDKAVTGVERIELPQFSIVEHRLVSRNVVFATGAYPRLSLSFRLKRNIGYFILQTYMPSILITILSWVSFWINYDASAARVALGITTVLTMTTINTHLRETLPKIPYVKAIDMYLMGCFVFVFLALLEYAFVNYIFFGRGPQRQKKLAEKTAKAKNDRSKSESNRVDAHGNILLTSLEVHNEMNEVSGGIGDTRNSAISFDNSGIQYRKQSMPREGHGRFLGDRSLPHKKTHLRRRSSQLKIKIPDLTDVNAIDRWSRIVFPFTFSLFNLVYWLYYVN

[4] = cited from earlier work
[5] = cited from earlier work; remark: listed apart in the source
[6] = cited from earlier work; remark: listed apart in the source
GABAA receptor = details: concentrations close to anesthetic EC50 (65 μM); cited from earlier work
[7] = read-out: general anesthetic EC50
[8] = read-out: EC50, tadpole loss of righting reflex

human α1β2γ2L GABAA receptor, sequence (P47870 25-512 limits assumed, one chain of several): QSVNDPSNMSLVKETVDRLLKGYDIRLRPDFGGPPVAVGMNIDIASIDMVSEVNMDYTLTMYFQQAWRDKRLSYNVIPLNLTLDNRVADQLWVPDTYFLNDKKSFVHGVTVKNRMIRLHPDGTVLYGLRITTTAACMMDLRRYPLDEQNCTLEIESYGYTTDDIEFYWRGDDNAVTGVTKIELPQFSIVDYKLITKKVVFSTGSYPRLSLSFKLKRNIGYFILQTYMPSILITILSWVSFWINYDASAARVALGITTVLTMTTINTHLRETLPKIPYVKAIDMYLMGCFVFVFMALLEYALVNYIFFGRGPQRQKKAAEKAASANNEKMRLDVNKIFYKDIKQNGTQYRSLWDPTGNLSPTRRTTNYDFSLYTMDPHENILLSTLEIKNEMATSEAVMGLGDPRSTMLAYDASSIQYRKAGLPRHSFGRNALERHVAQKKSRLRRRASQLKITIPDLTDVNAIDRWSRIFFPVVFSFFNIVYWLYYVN
human α1β2γ2L GABAA receptor, sequence (P18507 40-475, one chain of several): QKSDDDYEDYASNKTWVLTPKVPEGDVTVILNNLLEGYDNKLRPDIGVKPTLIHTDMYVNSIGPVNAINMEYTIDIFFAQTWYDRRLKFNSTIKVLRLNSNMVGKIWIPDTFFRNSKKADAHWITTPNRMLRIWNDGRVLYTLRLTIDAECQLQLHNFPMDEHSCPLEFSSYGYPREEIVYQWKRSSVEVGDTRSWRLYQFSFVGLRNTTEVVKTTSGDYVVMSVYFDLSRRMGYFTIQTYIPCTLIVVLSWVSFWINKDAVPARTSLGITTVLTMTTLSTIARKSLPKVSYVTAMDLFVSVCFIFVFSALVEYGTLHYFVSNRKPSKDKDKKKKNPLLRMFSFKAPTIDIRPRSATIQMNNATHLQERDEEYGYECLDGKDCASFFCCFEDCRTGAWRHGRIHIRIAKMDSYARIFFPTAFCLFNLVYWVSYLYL

C=CCC1(c2cccc(C3(C(F)(F)F)N=N3)c2)C(=O)NC(=O)N(C)C1=O (racemic) [(±)-14, (±)-5-Allyl-1-methyl-5-[3-(3-trifluoromethyl-3H-diazirin-3-yl)-phenyl]-pyrimidine-2,4,6-trione]
pKa [1]: 7.48 ± 0.08 | time stable in buffer [2]: at least 2.5 days

NCCCC(=O)O [GABA, γ-aminobutyric acid]
GABA concentration response nH ([3]; GABA alone): 1.8 ± 0.1

CCOC(=O)c1cncn1[C@H](C)c1ccccc1 [R-(+)-etomidate]
EC50 (tadpoles; [7]): 2.3 µM

C=CC[C@@]1(c2cccc(C3(C(F)(F)F)N=N3)c2)C(=O)NC(=O)N(C)C1=O [R-(−)-14]
GABA nH in the presence of compound ([3]; 8 μM compound): 1.0 ± 0.1

C[C@H](c1ccccc1)n1cncc1C(=O)OCc1ccc(C2(C(F)(F)F)N=N2)cc1 [aryldiazirine analog of etomidate]
efficiency of α1β3 GABAAR subunit photolabeling (human α1β3 GABAAR): 0.5%

CCC1(c2ccccc2)C(=O)NC(=O)N(C)C1=O (stereo not drawn) [mephobarbital]
EC50 (tadpoles; [8]): 90 µM | solubility in water [4]: 600 µM (≈ 148 µg/mL) | octanol/water partition coefficient [5]: 69 | pKa [6]: 7.65

C=CCC1(C(C)C#CCC)C(=O)N=C(O)N(C)C1=O (stereo not drawn) [methohexital]
EC50 (tadpoles; [8]): 20 µM

CCCC(C)C1(CC)C(=O)NC(=O)NC1=O (stereo not drawn) [pentobarbital, 5-ethyl-5-(pentan-2-yl)pyrimidine-2,4,6(1H,3H,5H)-trione]
fold potentiation of 10 μM GABA currents (GABAA receptor): 4-6 fold | EC50 (tadpoles; read-out: EC50 producing anesthesia in tadpoles): ~140 µM

CCC1(c2ccccc2)C(=O)NC(=O)NC1=O [phenobarbital]
EC50 (tadpoles; [8]): 3300 µM

CC(C)c1cccc(C(C)C)c1O [propofol]
EC50 (tadpoles; [7]): 2.2 µM

Source: paper PMC3717557 (Journal of medicinal chemistry, 2012)
